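Each compound was tested at five concentrations against cells in 96-well plates for 48 hours. At the GI50, growth is halved. At the TGI there is no net growth.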
Legend:
Test in all cases: NCI tumour cell line growth inhibition, 48 h
A549 NSCLC = system: A549 NSCLC
NCI-H23 lung = system: NCI-H23 lung
A498 renal = system: A498 renal
U251 CNS = system: U251 CNS
UACC-62 melanoma = system: UACC-62 melanoma
HS 578T breast = system: HS 578T breast
SR leukemia = system: SR leukemia
SF-268 CNS = system: SF-268 CNS
DU-145 prostate = system: DU-145 prostate
MALME-3M melanoma = system: MALME-3M melanoma
MDA-MB-231 breast = system: MDA-MB-231 breast
T-47D breast = system: T-47D breast
M14 melanoma = system: M14 melanoma
SF-539 CNS = system: SF-539 CNS
CCRF-CEM leukemia = system: CCRF-CEM leukemia
BT-549 breast = system: BT-549 breast
NCI-H460 lung = system: NCI-H460 lung
MCF7 breast = system: MCF7 breast
HOP-62 NSCLC = system: HOP-62 NSCLC
NCI/ADR-RES ovarian = system: NCI/ADR-RES ovarian
SK-MEL-2 melanoma = system: SK-MEL-2 melanoma
CAKI-1 renal = system: CAKI-1 renal
TK-10 renal = system: TK-10 renal
SK-OV-3 ovarian = system: SK-OV-3 ovarian
SF-295 CNS = system: SF-295 CNS
SN12C renal = system: SN12C renal
MDA-MB-435 = system: MDA-MB-435
SK-MEL-28 melanoma = system: SK-MEL-28 melanoma
PC-3 prostate = system: PC-3 prostate
SW-620 colon = system: SW-620 colon
NCI-H226 lung = system: NCI-H226 lung
RPMI-8226 leukemia = system: RPMI-8226 leukemia
KM12 colon = system: KM12 colon
HCT-116 colon = system: HCT-116 colon
HCT-15 colon = system: HCT-15 colon
OVCAR-4 ovarian = system: OVCAR-4 ovarian
OVCAR-5 ovarian = system: OVCAR-5 ovarian
HOP-92 NSCLC = system: HOP-92 NSCLC
SNB-19 CNS = system: SNB-19 CNS
HT29 colon = system: HT29 colon
LOX IMVI melanoma = system: LOX IMVI melanoma
786-0 renal = system: 786-0 renal
OVCAR-8 ovarian = system: OVCAR-8 ovarian
MOLT-4 leukemia = system: MOLT-4 leukemia
HCC-2998 colon = system: HCC-2998 colon
ACHN renal = system: ACHN renal
NCI-H522 lung = system: NCI-H522 lung
EKVX NSCLC = system: EKVX NSCLC
K-562 leukemia = system: K-562 leukemia
UACC-257 melanoma = system: UACC-257 melanoma
UO-31 renal = system: UO-31 renal
HL-60(TB) leukemia = system: HL-60(TB) leukemia
IGROV1 ovarian = system: IGROV1 ovarian
RXF 393 renal = system: RXF 393 renal

Compound: CC(C)(C)c1cc(NC(=O)Nc2ccc(-c3cn4c5c(sc4n3)CCc3cn(CCCN4CCCCC4)cc3-5)cc2)no1
- GI50 (A549 NSCLC): 1.83 µM
- TGI (A549 NSCLC): 3.47 µM
- GI50 (NCI-H23 lung): 1.82 µM
- TGI (NCI-H23 lung): 3.52 µM
- GI50 (A498 renal): 1.76 µM
- TGI (A498 renal): 3.15 µM
- GI50 (U251 CNS): 1.47 µM
- TGI (U251 CNS): 2.88 µM
- GI50 (UACC-62 melanoma): > 100 µM
- TGI (UACC-62 melanoma): > 100 µM
- GI50 (HS 578T breast): 1.82 µM
- TGI (HS 578T breast): 3.85 µM
- GI50 (SR leukemia): 2.13 µM
- TGI (SR leukemia): 6.77 µM
- GI50 (SF-268 CNS): 1.81 µM
- TGI (SF-268 CNS): 3.89 µM
- GI50 (DU-145 prostate): 1.77 µM
- TGI (DU-145 prostate): 3.17 µM
- GI50 (MALME-3M melanoma): 1.71 µM
- TGI (MALME-3M melanoma): 3.38 µM
- GI50 (MDA-MB-231 breast): 1.95 µM
- TGI (MDA-MB-231 breast): 3.73 µM
- GI50 (T-47D breast): 1.79 µM
- TGI (T-47D breast): 3.85 µM
- GI50 (M14 melanoma): 1.71 µM
- TGI (M14 melanoma): 3.15 µM
- GI50 (SF-539 CNS): 1.74 µM
- TGI (SF-539 CNS): 3.18 µM
- GI50 (CCRF-CEM leukemia): 2.01 µM
- TGI (CCRF-CEM leukemia): 6.44 µM
- GI50 (BT-549 breast): 1.75 µM
- TGI (BT-549 breast): 3.29 µM
- GI50 (NCI-H460 lung): 1.8 µM
- TGI (NCI-H460 lung): 3.64 µM
- GI50 (MCF7 breast): 1.75 µM
- TGI (MCF7 breast): 3.81 µM
- GI50 (HOP-62 NSCLC): 1.9 µM
- TGI (HOP-62 NSCLC): 3.75 µM
- GI50 (NCI/ADR-RES ovarian): 2.09 µM
- TGI (NCI/ADR-RES ovarian): 4.73 µM
- GI50 (SK-MEL-2 melanoma): > 100 µM
- TGI (SK-MEL-2 melanoma): > 100 µM
- GI50 (CAKI-1 renal): 1.64 µM
- TGI (CAKI-1 renal): 3.12 µM
- GI50 (TK-10 renal): 1.82 µM
- TGI (TK-10 renal): 3.27 µM
- GI50 (SK-OV-3 ovarian): 1.72 µM
- TGI (SK-OV-3 ovarian): 3.28 µM
- GI50 (SF-295 CNS): 1.73 µM
- TGI (SF-295 CNS): 3.25 µM
- GI50 (SN12C renal): 1.85 µM
- TGI (SN12C renal): 3.49 µM
- GI50 (MDA-MB-435): 1.73 µM
- TGI (MDA-MB-435): 3.17 µM
- GI50 (SK-MEL-28 melanoma): 1.82 µM
- TGI (SK-MEL-28 melanoma): 3.25 µM
- GI50 (PC-3 prostate): 1.71 µM
- TGI (PC-3 prostate): 3.23 µM
- GI50 (SW-620 colon): 1.8 µM
- TGI (SW-620 colon): 3.36 µM
- GI50 (NCI-H226 lung): > 100 µM
- TGI (NCI-H226 lung): > 100 µM
- GI50 (RPMI-8226 leukemia): 2.36 µM
- TGI (RPMI-8226 leukemia): 6.28 µM
- GI50 (KM12 colon): 1.9 µM
- TGI (KM12 colon): 3.83 µM
- GI50 (HCT-116 colon): 1.67 µM
- TGI (HCT-116 colon): 3.22 µM
- GI50 (HCT-15 colon): 1.66 µM
- TGI (HCT-15 colon): 3.3 µM
- GI50 (OVCAR-4 ovarian): 1.78 µM
- TGI (OVCAR-4 ovarian): 3.59 µM
- GI50 (OVCAR-5 ovarian): 1.75 µM
- TGI (OVCAR-5 ovarian): 3.18 µM
- GI50 (HOP-92 NSCLC): 1.42 µM
- TGI (HOP-92 NSCLC): 2.82 µM
- GI50 (SNB-19 CNS): 1.82 µM
- TGI (SNB-19 CNS): 3.34 µM
- GI50 (HT29 colon): 1.99 µM
- TGI (HT29 colon): 3.91 µM
- GI50 (LOX IMVI melanoma): 1.8 µM
- TGI (LOX IMVI melanoma): 3.3 µM
- GI50 (786-0 renal): 1.76 µM
- TGI (786-0 renal): 3.21 µM
- GI50 (OVCAR-8 ovarian): 2.27 µM
- TGI (OVCAR-8 ovarian): 5.26 µM
- GI50 (MOLT-4 leukemia): 1.93 µM
- TGI (MOLT-4 leukemia): 6.83 µM
- GI50 (HCC-2998 colon): 1.91 µM
- TGI (HCC-2998 colon): 3.77 µM
- GI50 (ACHN renal): 1.79 µM
- TGI (ACHN renal): 3.21 µM
- GI50 (NCI-H522 lung): 1.89 µM
- TGI (NCI-H522 lung): 3.74 µM
- GI50 (EKVX NSCLC): 1.79 µM
- TGI (EKVX NSCLC): 3.23 µM
- GI50 (K-562 leukemia): 2.57 µM
- TGI (K-562 leukemia): > 100 µM
- GI50 (UACC-257 melanoma): 1.79 µM
- TGI (UACC-257 melanoma): 3.5 µM
- GI50 (UO-31 renal): 1.6 µM
- TGI (UO-31 renal): 3 µM
- GI50 (HL-60(TB) leukemia): 1.88 µM
- TGI (HL-60(TB) leukemia): 6.27 µM
- GI50 (IGROV1 ovarian): 1.96 µM
- TGI (IGROV1 ovarian): 3.82 µM
- GI50 (RXF 393 renal): 1.6 µM
- TGI (RXF 393 renal): 3.1 µM
